Assay [1] deals with patients having non-insulin dependent diabetes (NIDDM). As to the kind of experiment: Overnight subcutaneous infusion in NIDDM patients, blood glucose (Example 1). Format: in vivo.
A further assay relates to NIDDM patients. As to the kind of experiment: Infusion during meals in NIDDM patients, blood glucose (Example 2). Type of assay: in vivo. Particulars: while infused, three hours during breakfast, lunch and dinner; compared with insulin injection; five NIDDM patients.

Where no end group is shown, it is not given here.

Regarding “GLP-1(7-36) amide (HAEGTFTSDVSSYLEGQAAKEFIAWLVKGR-NH2; UniProt P01275 98-127, looked up, fragment) [truncated glucagon-like peptide 1, C-terminal amide]”, in assay [1] (compared with continuous insulin infusion, average blood glucose significantly lower at 23:00, 0:00 and 1:00), the metabolic control result was “better than that achieved by insulin”. Further, the “effect on blood glucose” value in assay [1] (subcutaneous infusion 1.2 pmol/kg/hr, ten hours during the night, five NIDDM patients) was “nearly normalized blood glucose”. The post-prandial glucose excursions entry with NIDDM patients is recorded as “eliminated”.

Values taken from patent publication EP1115421B1, “USE OF GLP-1 OR ANALOGS IN TREATMENT OF STROKE” (ELI LILLY AND COMPANY, priority 1998, dated 2009).
